Results as given in ChEMBL document CHEMBL1156137, “Synthesis and biological evaluation of 2-amino-7,7-dimethyl 4-substituted-5-oxo-1-(3,4,5-trimethoxy)-1,4,5,6,7,8-hexahydro-quinoline-3-carbonitrile derivatives as potential cytotoxic agents” (Bioorg Med Chem Lett, 2009).

Key:
[1] = Cytotoxicity against mouse EAC cells; type: functional, cell-based, Ehrlich
[2] = Cytotoxicity against mouse EAC cells assessed as nonviable cell at 100 ug/mL relative to doxorubicin; type: functional, Ehrlich
[3] = Cytotoxicity against mouse EAC cells assessed as nonviable cell at 50 ug/mL relative to doxorubicin; type: functional, Ehrlich
[4] = Cytotoxicity against mouse EAC cells assessed as nonviable cell at 10 ug/mL relative to doxorubicin; type: functional, Ehrlich
[5] = Cytotoxicity against mouse EAC cells assessed as nonviable cell at 25 ug/mL relative to doxorubicin; type: functional, Ehrlich
[6] = Mus musculus, Ehrlich, read-out: IC50

In the case of `COc1cc(N2C(N)=C(C#N)C(c3ccc(OC)c4ccccc34)C3=C2CC(C)(C)CC3=O)cc(OC)c1OC` (stereo not given), the IC50 ([1]; ehrlich) is reported as “Not Active”, the Activity [2] is reported as 40% and the Activity [3] is reported as 40%. It also gave an Activity [4] of 10% and an Activity [5] of 30%.
For `COc1cc(N2C(N)=C(C#N)C(c3ccccc3Cl)C3=C2CC(C)(C)CC3=O)cc(OC)c1OC` (stereo not given), the IC50 ([1]; ehrlich) was “Not Active”, the Activity [2] was 20% and the Activity [3] was 20%. The Activity [4] was 10% and the Activity [5] was 15%.
In the case of `COc1ccc(C2C(C#N)=C(N)N(c3cc(OC)c(OC)c(OC)c3)C3=C2C(=O)CC(C)(C)C3)cc1` (stereo not given), the IC50 ([1]; ehrlich) is reported as “Not Active”, the Activity [2] is reported as 15% and the Activity [3] is reported as 11%. For the same compound, the Activity [4] was 0% and the Activity [5] was 1%.
In the case of `COc1cc(N2C(N)=C(C#N)C(c3c(OC)ccc4ccccc34)C3=C2CC(C)(C)CC3=O)cc(OC)c1OC` (stereo not given), the IC50 ([1]; ehrlich) is reported as “Not Active”, the Activity [2] is reported as 30% and the Activity [3] is reported as 10%. For the same compound, the Activity [4] was 0% and the Activity [5] was 5%.
With `COc1cc(N2C(N)=C(C#N)C(/C=C/c3ccccc3)C3=C2CC(C)(C)CC3=O)cc(OC)c1OC` (stereo not given) the IC50 ([1]; ehrlich) was “Not Active”, the Activity [2] was 40% and the Activity [3] was 30%. It also gave an Activity [4] of 10% and an Activity [5] of 30%.
For `COc1cc(N2C(N)=C(C#N)C(c3ccccc3O)C3=C2CC(C)(C)CC3=O)cc(OC)c1OC` (stereo not given), the IC50 ([1]; ehrlich) was “Not Active”, the Activity [2] was 10% and the Activity [3] was 2%. It also gave an Activity [4] of 0% and an Activity [5] of 0%.
`COc1cc(N2C(N)=C(C#N)C(c3ccc([N+](=O)[O-])cc3)C3=C2CC(C)(C)CC3=O)cc(OC)c1OC` (stereo not given) showed an IC50 [1, 6] of 25 µM, an Activity [2] of 80% and an Activity [3] of 70%. It also gave an Activity [4] of 10% and an Activity [5] of 50%.
For `COc1cc(N2C(N)=C(C#N)C(c3ccc4c(c3)OCO4)C3=C2CC(C)(C)CC3=O)cc(OC)c1OC` (stereo not given), the IC50 ([1]; ehrlich) was “Not Active”, the Activity [2] was 40% and the Activity [3] was 40%. It also gave an Activity [4] of 10% and an Activity [5] of 30%.
In the case of `CCOc1cc(C2C(C#N)=C(N)N(c3cc(OC)c(OC)c(OC)c3)C3=C2C(=O)CC(C)(C)C3)ccc1O` (stereo not given), the IC50 ([1]; ehrlich) is reported as “Not Active”, the Activity [2] is reported as 45% and the Activity [3] is reported as 40%. For the same compound, the Activity [4] was 2% and the Activity [5] was 10%.
For `COc1cc(N2C(N)=C(C#N)C(c3ccc(O)cc3)C3=C2CC(C)(C)CC3=O)cc(OC)c1OC` (stereo not given), the IC50 [1, 6] was 75.8 µM, the Activity [2] was 100% and the Activity [3] was 90%. For the same compound, the Activity [4] was 10% and the Activity [5] was 20%.
With `COc1cc(N2C(N)=C(C#N)C(c3cccc([N+](=O)[O-])c3)C3=C2CC(C)(C)CC3=O)cc(OC)c1OC` (stereo not given) the IC50 ([1]; ehrlich) was “Not Active”, the Activity [2] was 30% and the Activity [3] was 30%. For the same compound, the Activity [4] was 5% and the Activity [5] was 20%.
For `COc1cc(N2C(N)=C(C#N)C(c3ccc(C)o3)C3=C2CC(C)(C)CC3=O)cc(OC)c1OC` (stereo not given), the IC50 [1, 6] was 216 µM, the Activity [2] was 50% and the Activity [3] was 41%. For the same compound, the Activity [4] was 21% and the Activity [5] was 31%.
With `COc1cc(C2C(C#N)=C(N)N(c3cc(OC)c(OC)c(OC)c3)C3=C2C(=O)CC(C)(C)C3)ccc1O` (stereo not given) the IC50 ([1]; ehrlich) was “Not Active”, the Activity [2] was 40% and the Activity [3] was 30%. For the same compound, the Activity [4] was 10% and the Activity [5] was 20%.
For `COc1cc(N2C(N)=C(C#N)C(c3cccs3)C3=C2CC(C)(C)CC3=O)cc(OC)c1OC` (stereo not given), the IC50 ([1]; ehrlich) was “Not Active”, the Activity [2] was 20% and the Activity [3] was 15%. It also gave an Activity [4] of 5% and an Activity [5] of 10%.
With `COc1cc(N2C(N)=C(C#N)C(c3ccc(Cl)cc3Cl)C3=C2CC(C)(C)CC3=O)cc(OC)c1OC` (stereo not given) the IC50 [1, 6] was 94.7 µM, the Activity [2] was 100% and the Activity [3] was 95%. The Activity [4] was 20% and the Activity [5] was 55%.
Work on `COc1cc(N2C(N)=C(C#N)C(c3ccc(C)cc3)C3=C2CC(C)(C)CC3=O)cc(OC)c1OC` (stereo not given) yielded an IC50 [1, 6] of 52.9 µM, an Activity [2] of 90% and an Activity [3] of 60%. For the same compound, the Activity [4] was 30% and the Activity [5] was 50%.
In the case of `COc1ccccc1C1C(C#N)=C(N)N(c2cc(OC)c(OC)c(OC)c2)C2=C1C(=O)CC(C)(C)C2` (stereo not given), the IC50 [1, 6] is reported as 26.6 µM, the Activity [2] is reported as 100% and the Activity [3] is reported as 70%. It also gave an Activity [4] of 30% and an Activity [5] of 65%.
In the case of `COc1cc(N2C(N)=C(C#N)C(c3ccccc3)C3=C2CC(C)(C)CC3=O)cc(OC)c1OC` (stereo not given), the IC50 ([1]; ehrlich) is reported as “Not Active”, the Activity [2] is reported as 10% and the Activity [3] is reported as 8%. It also gave an Activity [4] of 0% and an Activity [5] of 6%.
With `COc1cc(N2C(N)=C(C#N)C(c3ccc(OC)c(OC)c3OC)C3=C2CC(C)(C)CC3=O)cc(OC)c1OC` (stereo not given) the IC50 ([1]; ehrlich) was “Not Active”, the Activity [2] was 40% and the Activity [3] was 30%. It also gave an Activity [4] of 20% and an Activity [5] of 30%.
In the case of `COc1cc(N2C(N)=C(C#N)C(c3c(O)ccc4ccccc34)C3=C2CC(C)(C)CC3=O)cc(OC)c1OC` (stereo not given), the IC50 [1, 6] is reported as 143 µM, the Activity [2] is reported as 90% and the Activity [3] is reported as 15%. It also gave an Activity [4] of 2% and an Activity [5] of 10%.
Compound `COc1cccc2c1C(=O)c1c(O)c3c(c(O)c1C2=O)C[C@@](O)(C(=O)CO)C[C@@H]3O[C@H]1C[C@H](N)[C@H](O)[C@H](C)O1` [DOXORUBICIN] has an IC50 [1, 6] of 68.1 µM, an Activity [2] of 100% and an Activity [3] of 68%. It also gave an Activity [4] of 24% and an Activity [5] of 30%.
